Data on 13 compounds can be found in ChEMBL document CHEMBL1177853, “Synthesis and pharmacological evaluation of novel substituted 9-deazaxanthines as A2B receptor antagonists” (Eur J Med Chem, 2010).

T4 sequence (P29274 whole entry): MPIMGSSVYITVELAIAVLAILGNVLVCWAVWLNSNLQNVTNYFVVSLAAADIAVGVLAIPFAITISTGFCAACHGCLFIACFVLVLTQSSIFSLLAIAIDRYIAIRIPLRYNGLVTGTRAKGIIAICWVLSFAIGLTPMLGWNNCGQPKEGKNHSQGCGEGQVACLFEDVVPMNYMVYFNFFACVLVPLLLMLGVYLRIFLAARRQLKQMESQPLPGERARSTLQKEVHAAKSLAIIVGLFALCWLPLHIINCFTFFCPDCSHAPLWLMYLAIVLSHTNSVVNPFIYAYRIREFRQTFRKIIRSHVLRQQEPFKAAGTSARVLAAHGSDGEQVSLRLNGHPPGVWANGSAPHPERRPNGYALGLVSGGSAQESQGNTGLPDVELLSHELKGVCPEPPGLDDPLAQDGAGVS

One assay deals with T1, Adenosine receptor A1 (Homo sapiens, UniProt P30542).
T1 sequence (P30542 whole entry): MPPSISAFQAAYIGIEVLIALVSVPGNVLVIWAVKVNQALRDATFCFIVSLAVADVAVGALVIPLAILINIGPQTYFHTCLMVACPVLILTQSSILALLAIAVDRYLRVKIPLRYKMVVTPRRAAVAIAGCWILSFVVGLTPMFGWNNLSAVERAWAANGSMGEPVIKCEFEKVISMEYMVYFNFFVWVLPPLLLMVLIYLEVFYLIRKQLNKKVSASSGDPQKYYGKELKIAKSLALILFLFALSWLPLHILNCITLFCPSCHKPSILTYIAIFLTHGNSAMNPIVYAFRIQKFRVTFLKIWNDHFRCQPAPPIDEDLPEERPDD
The experiment in a line: Displacement of [3H]DPCPX from human recombinant adenosine A1 receptor expressed in CHO-A1 cells after 60 mins. In kind it is cell-based. On the technique in general: Displacement assays read how much labelled ligand stays bound in the presence of the test substance.
Consider `COc1cc(OCc2nc(-c3ccc(Br)cc3)no2)ccc1-c1cc2c([nH]1)c(=O)n(C)c(=O)n2C`, for which the Ki was 182 nM.
Same read-out and setting: to `CCCn1c(=O)[nH]c2cc(-c3ccc(OCC(=O)Nc4ccc(F)cc4)cc3)[nH]c2c1=O` belongs 75.9 nM; to `CCCn1c(=O)[nH]c2cc(-c3ccc(OCC(=O)Nc4ccc(Br)cc4)cc3)[nH]c2c1=O`, 1.74 nM.

The species named for the next assay is Homo sapiens. As to the kind of experiment: Selectivity ratio of Ki for human recombinant adenosine A2B receptor to Ki for human recombinant adenosine A1 receptor.
Turning to `CCCn1c(=O)c2c(cc(-c3ccc(OCC(=O)Nc4ccc(F)cc4)cc3)n2C)n(C)c1=O`, the Ratio pKi was found to be 5.89.
The same measure, in the same setting: to `CCCn1c(=O)[nH]c2cc(-c3ccc(OCC(=O)Nc4ccc(F)cc4)cc3)[nH]c2c1=O` belongs 32.4; to `CCCn1c(=O)[nH]c2cc(-c3ccc(OCC(=O)Nc4ccc(Br)cc4)cc3)[nH]c2c1=O`, 0.49.

The target in another assay is T2, Adenosine receptor A2b (Homo sapiens) (UniProt P29275).
T2 sequence (whole entry): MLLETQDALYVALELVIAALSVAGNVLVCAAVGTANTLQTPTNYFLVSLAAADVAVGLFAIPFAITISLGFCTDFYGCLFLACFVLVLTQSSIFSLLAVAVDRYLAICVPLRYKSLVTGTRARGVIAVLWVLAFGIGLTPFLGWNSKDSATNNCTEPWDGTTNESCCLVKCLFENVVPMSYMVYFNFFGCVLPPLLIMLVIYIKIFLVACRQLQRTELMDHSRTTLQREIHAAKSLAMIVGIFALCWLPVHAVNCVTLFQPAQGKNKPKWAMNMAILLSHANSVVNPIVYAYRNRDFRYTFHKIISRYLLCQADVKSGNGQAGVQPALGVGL
As to the kind of experiment: Displacement of [3H]DPCPX from human recombinant adenosine A2B receptor expressed in HEK293 cells at 1 uM after 30 mins. In kind it is cell-based.
For `CCCn1c(=O)c2c(cc(-c3ccc(OCC(=O)N4CCN(c5ccccc5)CC4)cc3)n2C)n(CCC)c1=O`, the inhibition is 36%.
Same read-out and setting: to `CCCn1c(=O)c2c(cc(-c3ccc(OCC(=O)Nc4ccc(F)cc4)cc3)n2C)n(CCC)c1=O` belongs 20%.

The species named for the next assay is Homo sapiens. As to the kind of experiment: Selectivity ratio of Ki for human recombinant adenosine A2B receptor to Ki for human recombinant adenosine A2A receptor.
Take `COc1cc(OCc2nc(-c3ccc(Br)cc3)no2)ccc1-c1cc2c([nH]1)c(=O)n(C)c(=O)n2C`: the Ratio pKi amounted to 17.4.
Still for that read-out and setting: the same measure for `CCCn1c(=O)[nH]c2cc(-c3ccc(OCC(=O)Nc4ccc(F)cc4)cc3)[nH]c2c1=O`: 2750.

In another assay the target is T3, Adenosine receptor A1 (Homo sapiens) (UniProt P30542).
T3 sequence (whole entry): T1 sequence (P30542 whole entry)
The experiment in a line: Displacement of [3H]DPCPX from human recombinant adenosine A1 receptor expressed in CHO-A1 cells at 1 uM after 60 mins. It counts as cell-based.
For the compound `CCCn1c(=O)[nH]c(=O)c2[nH]c(-c3ccc(OCC(=O)Nc4ccc(Br)cc4)cc3)cc21`, the inhibition was found to be 41%.
The same measure, in the same setting: to `COc1cc(OCc2nc(-c3ccc(Br)cc3)no2)ccc1-c1cc2c([nH]1)c(=O)n(C)c(=O)n2C` belongs 36%; to `CCCn1c(=O)[nH]c(=O)c2[nH]c(-c3ccc(OCC(=O)Nc4ccccc4)cc3)cc21`, 0.5%; to `CCCn1c(=O)[nH]c2cc(-c3ccc(OCc4nc(-c5ccc(Br)cc5)no4)cc3)[nH]c2c1=O`, 21%.
Same read-out and setting: the same measure for `CCCn1c(=O)c2c(cc(-c3ccc(OCC(=O)N4CCN(c5ccccc5)CC4)cc3)n2C)n(CCC)c1=O`: 22%.
As for `CCCn1c(=O)c2c(cc(-c3ccc(OCC(=O)Nc4ccc(F)cc4)cc3)n2C)n(CCC)c1=O`, the inhibition was 9%.
The same measure, in the same setting: the same measure for `CCCn1c(=O)c2c(cc(-c3ccc(OCC(=O)N4CCc5ccccc5C4)cc3)n2C)n(CCC)c1=O`: 19%; for `CCCn1c(=O)[nH]c(=O)c2[nH]c(-c3ccc(OCC(=O)N4CCN(c5ccccc5)CC4)cc3)cc21`: 23%.
Same read-out and setting: the same measure for `CCCn1c(=O)[nH]c(=O)c2[nH]c(-c3ccc(OCC(=O)Nc4ccc(F)cc4)cc3)cc21`: 2%.
The same measure, in the same setting: the same measure for `CCCn1c(=O)[nH]c(=O)c2[nH]c(-c3ccc(OCC(=O)N4CCc5ccccc5C4)cc3)cc21`: 9%.

The next assay addresses T4, Adenosine receptor A2a (Homo sapiens, UniProt P29274). The experiment in a line: Displacement of [3H]ZM241385 from human recombinant adenosine A2A receptor expressed in human HeLa cells at 1 uM after 30 mins. In kind it is cell-based.
Consider `CCCn1c(=O)c2c(cc(-c3ccc(OCC(=O)Nc4ccc(F)cc4)cc3)n2C)n(C)c1=O`, for which the inhibition was 11%.
On the same count and under the same terms, to `CCCn1c(=O)[nH]c(=O)c2[nH]c(-c3ccc(OCC(=O)Nc4ccc(Br)cc4)cc3)cc21` belongs 22%; to `CCCn1c(=O)[nH]c(=O)c2[nH]c(-c3ccc(OCC(=O)Nc4ccccc4)cc3)cc21`, 17%.
On the same count and under the same terms, to `CCCn1c(=O)[nH]c2cc(-c3ccc(OCc4nc(-c5ccc(Br)cc5)no4)cc3)[nH]c2c1=O` belongs 11%.
The same measure, in the same setting: the same measure for `CCCn1c(=O)c2c(cc(-c3ccc(OCC(=O)N4CCN(c5ccccc5)CC4)cc3)n2C)n(CCC)c1=O`: 22%; for `CCCn1c(=O)c2c(cc(-c3ccc(OCC(=O)Nc4ccc(F)cc4)cc3)n2C)n(CCC)c1=O`: 15%; for `CCCn1c(=O)c2c(cc(-c3ccc(OCC(=O)N4CCc5ccccc5C4)cc3)n2C)n(CCC)c1=O`: 29%.
For `CCCn1c(=O)[nH]c(=O)c2[nH]c(-c3ccc(OCC(=O)N4CCN(c5ccccc5)CC4)cc3)cc21`, the inhibition is 33%.
On the same count and under the same terms, the same measure for `CCCn1c(=O)[nH]c(=O)c2[nH]c(-c3ccc(OCC(=O)Nc4ccc(F)cc4)cc3)cc21`: 36%; for `CCCn1c(=O)[nH]c2cc(-c3ccc(OCC(=O)Nc4ccc(Br)cc4)cc3)[nH]c2c1=O`: 43%; for `CCCn1c(=O)[nH]c(=O)c2[nH]c(-c3ccc(OCC(=O)N4CCc5ccccc5C4)cc3)cc21`: 12%.

The target of a further assay is T4, Adenosine receptor A2a. As to the kind of experiment: Displacement of [3H]ZM241385 from human recombinant adenosine A2A receptor expressed in human HeLa cells after 30 mins. It counts as cell-based.
Turning to `COc1cc(OCc2nc(-c3ccc(Br)cc3)no2)ccc1-c1cc2c([nH]1)c(=O)n(C)c(=O)n2C`, the Ki is 708 nM.
`CCCn1c(=O)[nH]c2cc(-c3ccc(OCC(=O)Nc4ccc(F)cc4)cc3)[nH]c2c1=O`: the Ki is 6460 nM.

The next assay deals with T5, Adenosine receptor A3 (Homo sapiens) (UniProt P0DMS8).
T5 sequence (whole entry): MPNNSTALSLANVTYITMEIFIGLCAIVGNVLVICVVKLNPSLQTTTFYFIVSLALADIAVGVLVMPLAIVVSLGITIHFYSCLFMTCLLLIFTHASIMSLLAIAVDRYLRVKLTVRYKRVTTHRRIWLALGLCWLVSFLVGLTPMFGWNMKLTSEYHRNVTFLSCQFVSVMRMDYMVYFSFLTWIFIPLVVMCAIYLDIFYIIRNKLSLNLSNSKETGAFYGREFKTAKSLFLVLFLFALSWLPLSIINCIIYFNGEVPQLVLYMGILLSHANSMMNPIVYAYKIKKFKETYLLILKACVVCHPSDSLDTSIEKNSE
The experiment in a line: Displacement of [3H]NECA from human recombinant adenosine A3 receptor expressed in human HeLa cells at 1 uM after 180 mins by scintillation counting. It counts as cell-based.
For the compound `CCCn1c(=O)c2c(cc(-c3ccc(OCC(=O)Nc4ccc(F)cc4)cc3)n2C)n(C)c1=O`, the inhibition came to 6%.
Same read-out and setting: to `CCCn1c(=O)[nH]c(=O)c2[nH]c(-c3ccc(OCC(=O)Nc4ccc(Br)cc4)cc3)cc21` belongs 28%; to `COc1cc(OCc2nc(-c3ccc(Br)cc3)no2)ccc1-c1cc2c([nH]1)c(=O)n(C)c(=O)n2C`, 3%.
Take `CCCn1c(=O)[nH]c(=O)c2[nH]c(-c3ccc(OCC(=O)Nc4ccccc4)cc3)cc21`: the inhibition was found to be 1%.
Regarding `CCCn1c(=O)[nH]c2cc(-c3ccc(OCc4nc(-c5ccc(Br)cc5)no4)cc3)[nH]c2c1=O`, the inhibition was found to be 2%.
The same measure, in the same setting: to `CCCn1c(=O)c2c(cc(-c3ccc(OCC(=O)N4CCN(c5ccccc5)CC4)cc3)n2C)n(CCC)c1=O` belongs 2%; to `CCCn1c(=O)c2c(cc(-c3ccc(OCC(=O)Nc4ccc(F)cc4)cc3)n2C)n(CCC)c1=O`, 1%; to `CCCn1c(=O)c2c(cc(-c3ccc(OCC(=O)N4CCc5ccccc5C4)cc3)n2C)n(CCC)c1=O`, 9%.
The same measure, in the same setting: the same measure for `CCCn1c(=O)[nH]c2cc(-c3ccc(OCC(=O)Nc4ccc(F)cc4)cc3)[nH]c2c1=O`: 2%.
The same measure, in the same setting: to `CCCn1c(=O)[nH]c(=O)c2[nH]c(-c3ccc(OCC(=O)N4CCN(c5ccccc5)CC4)cc3)cc21` belongs 15%; to `CCCn1c(=O)[nH]c(=O)c2[nH]c(-c3ccc(OCC(=O)Nc4ccc(F)cc4)cc3)cc21`, 3%; to `CCCn1c(=O)[nH]c2cc(-c3ccc(OCC(=O)Nc4ccc(Br)cc4)cc3)[nH]c2c1=O`, 14%.
Regarding `CCCn1c(=O)[nH]c(=O)c2[nH]c(-c3ccc(OCC(=O)N4CCc5ccccc5C4)cc3)cc21`, the inhibition is 1%.

For a further assay, the target named is T6, Adenosine receptor A2b (Homo sapiens, UniProt P29275).
T6 sequence (P29275 whole entry): T2 sequence (whole entry)
As to the kind of experiment: Displacement of [3H]DPCPX from human recombinant adenosine A2B receptor expressed in HEK293 cells after 30 mins. In kind it is cell-based.
Regarding `CCCn1c(=O)c2c(cc(-c3ccc(OCC(=O)Nc4ccc(F)cc4)cc3)n2C)n(C)c1=O`, the Ki is 30.9 nM.
Still for that read-out and setting: the same measure for `CCCn1c(=O)[nH]c(=O)c2[nH]c(-c3ccc(OCC(=O)Nc4ccc(Br)cc4)cc3)cc21`: 21.9 nM; for `COc1cc(OCc2nc(-c3ccc(Br)cc3)no2)ccc1-c1cc2c([nH]1)c(=O)n(C)c(=O)n2C`: 40.7 nM.
Same read-out and setting: the same measure for `CCCn1c(=O)[nH]c(=O)c2[nH]c(-c3ccc(OCC(=O)Nc4ccccc4)cc3)cc21`: 1050 nM; for `CCCn1c(=O)[nH]c2cc(-c3ccc(OCc4nc(-c5ccc(Br)cc5)no4)cc3)[nH]c2c1=O`: 31.6 nM; for `CCCn1c(=O)c2c(cc(-c3ccc(OCC(=O)N4CCc5ccccc5C4)cc3)n2C)n(CCC)c1=O`: 97.7 nM.
Still for that read-out and setting: to `CCCn1c(=O)[nH]c2cc(-c3ccc(OCC(=O)Nc4ccc(F)cc4)cc3)[nH]c2c1=O` belongs 2.34 nM.
Turning to `CCCn1c(=O)[nH]c(=O)c2[nH]c(-c3ccc(OCC(=O)N4CCN(c5ccccc5)CC4)cc3)cc21`, the Ki was 115 nM.
The same measure, in the same setting: to `CCCn1c(=O)[nH]c(=O)c2[nH]c(-c3ccc(OCC(=O)Nc4ccc(F)cc4)cc3)cc21` belongs 100 nM; to `CCCn1c(=O)[nH]c2cc(-c3ccc(OCC(=O)Nc4ccc(Br)cc4)cc3)[nH]c2c1=O`, 3.55 nM; to `CCCn1c(=O)[nH]c(=O)c2[nH]c(-c3ccc(OCC(=O)N4CCc5ccccc5C4)cc3)cc21`, 79.4 nM.

The term Ki denotes the equilibrium dissociation constant of an inhibitor or competing ligand from its target. In general, inhibition refers to the percentage by which the read-out fell short of the control.
